Values quoted from earlier work, collected in patent publication US9012511B2, “Nanoparticulate cinacalcet compositions” (Alkermes Pharma Ireland Limited, priority 2010, dated 2015).
Like-named read-outs stand apart in the source and are kept apart here.

What was measured:
[1] = fasted subjects; estimated

mean tmax (fasting subjects): 6 h
mean tmax (high-fat fed subjects): 4 h
mean tmax (low-fat fed subjects): 3.5 h
difference in mean AUC∞ between high- and low-fat meals (single oral dose 90 mg): 12 (9.9-26) %
mean (90% confidence intervals) AUC[infinity] increase relative to fasting (single oral dose 90 mg, high-fat, high-caloric meal): 68 (48 to 89) %
mean (90% confidence intervals) AUC[infinity] increase relative to fasting (single oral dose 90 mg, low-fat, low-caloric meal): 50 (33 to 70) %
absolute bioavailability [1]: 20-25%
SMILES: C[C@@H](NCCCc1cccc(C(F)(F)F)c1)c1cccc2ccccc12.Cl [Cinacalcet HCl, Cinacalcet hydrochloride]
